Data reported in US5384314A, “1α-fluoro-25-hydroxy-16-ene-23-yne-cholecalciferol” (Hoffmann-La Roche Inc., priority 1994, dated 1995).
Read-outs that look alike come from different tables or passages of the source.

Experiments:
[1] = tested on: sebaceous glands in ears of the male Syrian hamster; conditions: cited from earlier work
[2] = tested on: human sebocytes (sebaceous cells); assay: inhibition of human sebocyte proliferation in vitro; type: cell-based; conditions: for IC50: read-out: ED50 (amount of compound necessary to inhibit the proliferation of the sebaceous cells by 50% as compared to a control)
Method: Sebaceous cells were isolated from adult human sebaceous glands as in J. Invest. Dermatol. 96:341-348 (1991) and cultured on a layer of growth-arrested 3T3 mouse fibroblasts.
The cells were cultured in Iscove's medium containing 10% fetal calf serum and 4 μg/ml dexamethasone.
Cells were plated in medium without 1α-fluoro-25-hydroxy-16-ene-23-yne-cholecalciferol. 24-48 hours after the initial plating, the cultures were given fresh medium containing the compound of the invention. Every 48 hours, the cultures were given fresh medium containing the compound of the invention. On the day of harvesting, the cultures were rinsed with a 0.03% EDTA in PBS, to remove only the 3T3 fibroblasts. The remaining sebocyyte colonies were incubated in 0.05% trypsin/0.03% EDTA to create a single cell suspension of sebocytes. The cells were diluted, mixed vigorously to maintain a single cell suspension, and counted in a hemocytometer.
The compounds tested were handled in the following manner. Stock solutions were made up as 10^-2 M solutions in degassed 100% ethanol and stored at -20° C. in the dark. Solutions were never used after storage of more than one month. During experimental use the solutions, which were aliquoted, were thawed once and used by diluting directly into complete medium to the appropriate concentration, at 10^-6, 10^-7, 10^-8 M and 10^-9. The compounds tested were
The results are summarized in table 1 as the amount of compound necessary to inhibit the proliferation of the sebaceous cells by 50% as compared to a control (ED50). The control was a culture treated with diluent only.

[3] = tested on: hamster ear sebaceous gland; assay: hamster ear sebaceous gland model, oral study; type: in vivo, male Golden Syrian hamsters; conditions: 4 weeks
Method: The purpose of the test was to evaluate the effect of the inventive compound on the sebaceous glands of the hamster ear after oral administration of the compound. 200 μl of the compound of the invention dissolved in Tween 20/water/ethanol […] administered daily (5 days per week) by garage to male Golden Syrian hamsters. The animals were sacrificed at 4 weeks and the ears were processed for histological evaluation. One ear was fixed with 10% buffered formalin, processed for paraffin embedding, sectioned, and stained with hematoxyline and eosin (H&E). The area of the sebaceous glands was measured on histologically prepared cross-sections of the ear by image analysis using a Leitz TAS Plus system. Data is given as the average areas of 48 sebaceous glands per dose.

[4] = tested on: hamster ear sebaceous gland; assay: hamster ear sebaceous gland model, topical study; type: in vivo; conditions: 4 weeks, vs control
Method: The compound was evaluated for topical anti-acne activity in the hamster ear sebaceous gland model. For these studies, the compound was dissolved in acetone. Fifty (50) μl of the drug-containing solution was applied daily (5 days per week) to the dorsal side of the right ear of the hamster. Control hamsters received 50 μl of acetone. The animals were sacrificed after 4 weeks. The ears were removed and processed for histological evaluation. The ventral surface was separated from the rest of the ear. A 2 mm punch was removed 5 mm from the tip of the ear and stained in 0.1% Sudan Black B dissolved in 100% propylene glycol overnight. After destaining, the areas of the sebaceous glands were determined from the cross sections by image analysis using a Donsato Image Analysis System. The data was expressed as a percentage change from control animals for 80-120 sebaceous glands per dose.

SMILES | size of sebaceous glands in ears (result in words) [1] | IC50 ([2]; Homo sapiens) [nM] | % Change in Hamster Ear Sebaceous Gland Size Cross Section Analysis ([3]; 0.05 μg/kg) [%] | % Change in Hamster Ear Sebaceous Gland Size Cross Section Analysis ([3]; 0.5 μg/kg) [%] | % Change in Hamster Ear Sebaceous Gland Size Cross Section Analysis ([3]; 5.0 μg/kg) [%] | % Change in Hamster Ear Sebaceous Gland Size Cross Section Analysis ([3]; 50.0 μg/kg) [%] | Change in Hamster Ear Sebaceous Gland Size Cross Section Analysis ([4]; 0.001 μg/animal, ns = not statistically significant from controls) [%] | Change in Hamster Ear Sebaceous Gland Size Cross Section Analysis ([4]; 0.01 μg/animal, ns = not statistically significant from controls) [%] | Change in Hamster Ear Sebaceous Gland Size Cross Section Analysis ([4]; 0.1 μg/animal, ns = not statistically significant from controls) [%] | Change in Hamster Ear Sebaceous Gland Size Cross Section Analysis ([4]; 1.0 μg/animal, not marked ns) [%] | IC50 ([2]; human sebocytes in vitro, control treated with diluent only) [nM] | human sebocyte proliferation in vitro (result in words) ([2]; in vitro)
C=C1/C(=C\C=C2/CCC[C@]3(C)[C@@H]([C@H](C)CCCC(C)(C)O)CC[C@@H]23)C[C@@H](O)C[C@@H]1O [1,25-dihydroxycholecalciferol, reference compound] | reducing the size of sebaceous glands in ears of the male Syrian hamster | 50 | – | – | – | – | – | – | – | – | – | –
C=C1/C(=C\C=C2/CCC[C@]3(C)C([C@H](C)CC#CC(C)(C)O)=CC[C@@H]23)C[C@@H](O)C[C@@H]1F [1α-fluoro-25-hydroxy-16-ene-23-yne-cholecalciferol] | – | – | -28 | -28 | -34 | -35 | -3 | -18 | -28 | -40 | 1 | inhibits human sebocyte proliferation in vitro
